The values below are quoted from earlier work in PubChem BioAssay AID1259409 (Chemical Carcinogenesis Research Information System (CCRIS), 2018).

The data set relates to rodent chemically induced tumor inhibition, incidence and multiplicity. As to the kind of experiment: CCRIS tumor inhibitor studies. The following applies: Dose [Inhibitor]: 0.

Consider `COc1cc(/C=C/C(=O)CC(=O)/C=C/c2ccc(O)c(OC)c2)ccc1O`, for which the “tumour outcome (control, treated, inhibition, significance)” value by setting is: (Carcinogen: AZOXYMETHANE, 25843-45-2, 4% COMMERCIAL GRADE CURCUMIN IN DIET FOR 35 WK BEGINNING 2 WK PRIOR TO CARCINOGEN TREATMENT (STUDY DURATION: 35 WK), Route [Inhibitor]: ORAL, Species: MOUSE, Strain/Sex: CF-1/FEMALE, Target Tissue: Type of Lesion: COLON: ADENOCARCINOMA, Dose [Carcinogen]: 10 MG/KG BW IN 100 µL NORMAL SALINE 1/WK FOR 6 WK, Promoter: NONE USED) 40%, 15%, 63%, not significant; (Carcinogen: AZOXYMETHANE, 25843-45-2, 4% COMMERCIAL GRADE CURCUMIN IN DIET FOR 35 WK BEGINNING 2 WK PRIOR TO CARCINOGEN TREATMENT (STUDY DURATION: 35 WK), Route [Inhibitor]: ORAL, Species: MOUSE, Strain/Sex: CF-1/FEMALE, Target Tissue: Type of Lesion: COLON: ADENOMA, Dose [Carcinogen]: 10 MG/KG BW IN 100 µL NORMAL SALINE 1/WK FOR 6 WK, Promoter: NONE USED) 93%, 56%, 40%, not significant; (Carcinogen: AZOXYMETHANE, 25843-45-2, 200O PPM IN DIET FOR 56 WK BEGINNING 2 WK PRIOR TO CARCINOGEN TREATMENT (STUDY DURATION: 56 WK), Route [Inhibitor]: ORAL, Species: RAT, Strain/Sex: F344/MALE, Target Tissue: Type of Lesion: COLON: ADENOCARCINOMA, Dose [Carcinogen]: 15 MG/KG BW 1/WK FOR 2 WK, Promoter: NONE USED) 81%, 47%, 42%, p<0.004; (Carcinogen: BENZO[A]PYRENE, 50-32-8, 0.5% COMMERCIAL GRADE CURCUMIN IN DIET FOR 7 WK BEGINNING 2 WK PRIOR TO CARCINOGEN TREATMENT (STUDY DURATION: 30 WK), Route [Inhibitor]: ORAL, Species: MOUSE, Strain/Sex: STRAIN-A/FEMALE, Target Tissue: Type of Lesion: FORESTOMACH: PAPILLOMA, Dose [Carcinogen]: 1.5 MG IN 100 µL CORN OIL 1/WK FOR 4 WK, Promoter: NONE USED) 97%, 87%, 10%, not significant; (Carcinogen: BENZO[A]PYRENE, 50-32-8, 0.5% COMMERCIAL GRADE CURCUMIN IN DIET FOR 7 WK BEGINNING 2 WK PRIOR TO CARCINOGEN TREATMENT (STUDY DURATION: 30 WK), Route [Inhibitor]: ORAL, Species: MOUSE, Strain/Sex: STRAIN-A/FEMALE, Target Tissue: Type of Lesion: FORESTOMACH: SQUAMOUS CELL CARCINOMA, Dose [Carcinogen]: 1.5 MG IN 100 µL CORN OIL 1/WK FOR 4 WK, Promoter: NONE USED) 41%, 23%, 44%, not significant; (Carcinogen: BENZO[A]PYRENE, 50-32-8, 0.5% COMMERCIAL GRADE CURCUMIN IN DIET FOR 23 WK BEGINNING 1 WK POST CARCINOGEN TREATMENT (STUDY DURATION: 30 WK), Route [Inhibitor]: ORAL, Species: MOUSE, Strain/Sex: STRAIN-A/FEMALE, Target Tissue: Type of Lesion: FORESTOMACH: PAPILLOMA, Dose [Carcinogen]: 1.5 MG IN 100 µL CORN OIL 1/WK FOR 4 WK, Promoter: NONE USED) 97%, 89%, 8%, not significant. The “tumour outcome (control, treated, inhibition, significance)” value reads like this: (Carcinogen: BENZO[A]PYRENE, 50-32-8, 0.5% COMMERCIAL GRADE CURCUMIN IN DIET FOR 23 WK BEGINNING 1 WK POST CARCINOGEN TREATMENT (STUDY DURATION: 30 WK), Route [Inhibitor]: ORAL, Species: MOUSE, Strain/Sex: STRAIN-A/FEMALE, Target Tissue: Type of Lesion: FORESTOMACH: SQUAMOUS CELL CARCINOMA, Dose [Carcinogen]: 1.5 MG IN 100 µL CORN OIL 1/WK FOR 4 WK, Promoter: NONE USED) 41%, 30%, 27%, not significant; (Carcinogen: BENZO[A]PYRENE, 50-32-8, 2% COMMERCIAL GRADE CURCUMIN IN DIET FOR 7 WK BEGINNING 2 WK PRIOR TO CARCINOGEN TREATMENT (STUDY DURATION: 30 WK), Route [Inhibitor]: ORAL, Species: MOUSE, Strain/Sex: STRAIN-A/FEMALE, Target Tissue: Type of Lesion: FORESTOMACH: PAPILLOMA, Dose [Carcinogen]: 1.5 MG IN 100 µL CORN OIL 1/WK FOR 4 WK, Promoter: NONE USED) 97%, 83%, 14%, not significant; (Carcinogen: BENZO[A]PYRENE, 50-32-8, 2% COMMERCIAL GRADE CURCUMIN IN DIET FOR 7 WK BEGINNING 2 WK PRIOR TO CARCINOGEN TREATMENT (STUDY DURATION: 30 WK), Route [Inhibitor]: ORAL, Species: MOUSE, Strain/Sex: STRAIN-A/FEMALE, Target Tissue: Type of Lesion: FORESTOMACH: SQUAMOUS CELL CARCINOMA, Dose [Carcinogen]: 1.5 MG IN 100 µL CORN OIL 1/WK FOR 4 WK, Promoter: NONE USED) 41%, 10%, 76%, not significant; (Carcinogen: BENZO[A]PYRENE, 50-32-8, 2% COMMERCIAL GRADE CURCUMIN IN DIET FOR 23 WK BEGINNING 1 WK POST CARCINOGEN TREATMENT (STUDY DURATION: 30 WK), Route [Inhibitor]: ORAL, Species: MOUSE, Strain/Sex: STRAIN-A/FEMALE, Target Tissue: Type of Lesion: FORESTOMACH: PAPILLOMA, Dose [Carcinogen]: 1.5 MG IN 100 µL CORN OIL 1/WK FOR 4 WK, Promoter: NONE USED) 97%, 79%, 19%, not significant; (Carcinogen: BENZO[A]PYRENE, 50-32-8, 2% COMMERCIAL GRADE CURCUMIN IN DIET FOR 23 WK BEGINNING 1 WK POST CARCINOGEN TREATMENT (STUDY DURATION: 30 WK), Route [Inhibitor]: ORAL, Species: MOUSE, Strain/Sex: STRAIN-A/FEMALE, Target Tissue: Type of Lesion: FORESTOMACH: SQUAMOUS CELL CARCINOMA, Dose [Carcinogen]: 1.5 MG IN 100 µL CORN OIL 1/WK FOR 4 WK, Promoter: NONE USED) 41%, 14%, 66%, not significant; (Carcinogen: BENZO[A]PYRENE, 50-32-8, 3 UMOL IN ACETONE 1/WK FOR 10 WK APPLIED 5 MIN PRIOR TO EACH CARCINOGEN DOSE (STUDY DURATION: 32 WK), Route [Inhibitor]: DERMAL, Species: MOUSE, Strain/Sex: CD-1/FEMALE, Target Tissue: Type of Lesion: SKIN: TUMORS, Dose [Carcinogen]: 20 NMOL 1/WK FOR 10 WK, Promoter: 12-O-TETRADECANOYLPHORBOL-13-ACETATE, 16561-29-8) 100%, 75%, 25%, not calculated. For the same compound, the “tumour outcome (control, treated, inhibition, significance)” value by setting is: (Carcinogen: BENZO[A]PYRENE, 50-32-8, 5% IN DIET FOR 8 WK BEGINNING 2 WK PRIOR TO CARCINOGEN TREATMENT (STUDY DURATION: 20 WK), Route [Inhibitor]: ORAL, Species: MOUSE, Strain/Sex: SWISS/FEMALE, Target Tissue: Type of Lesion: FORESTOMACH: TUMOR, Dose [Carcinogen]: 1 MG IN 0.1 ML PEANUT OIL 2/WK FOR 4 WK, Promoter: NONE USED) 20/20 (100%), 12/20 (60%), 40%, p<0.001; (Carcinogen: BENZO[A]PYRENE, 50-32-8, 10 UMOL IN ACETONE 1/WK FOR 10 WK APPLIED 5 MIN PRIOR TO EACH CARCINOGEN DOSE (STUDY DURATION: 32 WK), Route [Inhibitor]: DERMAL, Species: MOUSE, Strain/Sex: CD-1/FEMALE, Target Tissue: Type of Lesion: SKIN: TUMORS, Dose [Carcinogen]: 20 NMOL 1/WK FOR 10 WK, Promoter: 12-O-TETRADECANOYLPHORBOL-13-ACETATE, 16561-29-8) 100%, 82%, 18%, not calculated.
